Data reported in patent publication US20170367394A1, “PROCESS FOR INCREASING THE STABILITY OF A COMPOSITION COMPRISING POLYUNSATURATED OMEGA-6 FATTY ACIDS” (Evonik Degussa GmbH, priority 2014, published 2017).

Columns and labels:
Type in all cases: physicochemical
[1] = Anisidine Value (AV, secondary oxidation products) according to Ph. Eur. 2.5.36, before and after storage at 50° C. exposed to air; conditions: for Anisidine Value: as obtained / as supplied (experiments 1-4)
Procedure: An exemplary procedure for determining the Anisidine Value (AV) of a sample is performed as follows:
The anisidine value is defined as 100 times the optical density measured in a 1 cm cell of a solution containing 1 g of the substance to be examined in 100 ml of a mixture of solvents and reagents according to the following method. Carry out the operations as rapidly as possible, avoiding exposure to actinic light.
Test solution (a): Dissolve 0.500 g of the substance to be examined in trimethylpentane and dilute to 25.0 ml with the same solvent.
Test solution (b): To 5.0 ml of test solution (a) add 1.0 ml of a 2.5 g/I solution of p-anisidine in glacial acetic acid, shake and store protected from light.
Reference solution: To 5.0 ml of trimethylpentane add 1.0 ml of a 2.5 g/I solution of p-anisidine in glacial acetic acid, shake and store protected from light. Measure the absorbance of test solution (a) at the maximum at 350 nm using trimethylpentane as the compensation liquid. Measure the absorbance of test solution (b) at 350 nm exactly 10 min after its preparation, using the reference solution as the compensation liquid. Calculate the anisidine value (AV) from the expression:
(§1) Primary oxidation products (hydroperoxides at double bonds) were quantified by determining the Peroxide Value (PV) according to Ph. Eur. 2.5.5 (01/2008:20505). Secondary oxidation products (carbonyl compounds) were quantified by determining the Anisidine Value (AV) according to Ph. Eur. 2.5.36 (01/2008:20536).
(§2) 30 g each of the liquid ethyl arachidonic acid glycerin ester and the gamma-linolenic acid ethyl ester used in experiments 1 and 2 as well as of the arachidonic acids and the gamma-linolenic acid obtained in experiments 1 and 2 were filled into 500 ml Schott Duran glass bottles.
(§3) About 30 g each of the solid lysine-salts ARA-Lys and GLA-Lys obtained in experiments 3 and 4 were filled Schott Duran glass bottles.
(§4) All of the bottles were placed together with opened lids in a drying oven with an opened ventilation valve at 50° C. and stored in the dark under these conditions for 81 days.

[2] = Peroxide Value (PV, primary oxidation products) according to Ph. Eur. 2.5.5, before and after storage at 50° C. exposed to air
Procedure: An exemplary procedure for determining the Peroxide Value (PV) of a sample is performed as follows:
Peroxide value=(S−B)*N thiosulfate*1000/weight of sample
as §1, §2, §3, §4

[3] = Oligomer content by gel-chromatography (GPC, RI detector); conditions: as obtained
Procedure: Oligomeric PUFA constituents as well as their derivatives (collectively referred to as oligomer content) were quantified by gel-chromatographic means (GPC, styroldivinylbenzene-phase with tetrahydrofuran containing trifluoroacetic acid used as eluent). A refractive index (RI) detector was used for detection. Due to the fact that specific response factors of the constituents of the samples were unknown, proportions were calculated based upon fractional proportions of the total area of chromatograms.

[4] = t = 81 days, open bottles, 50° C., exposed to air, in the dark

## Arachidonic acid-L-Lysine Salt [ARA-Lys]
[1]
  Anisidine Value: 1
[1]; t = 0, before storage
  Anisidine Value (AV): 1 A/g
[1]; [4]
  Anisidine Value (AV): <1 A/g
[2]; as obtained (experiments 1-4)
  Peroxide Value: < 1 mmol/kg
[2]; t = 0, before storage
  Peroxide Value (PV): <1 mmol/kg
[2]; [4]
  Peroxide Value (PV): <1 mmol/kg
[3]
  Oligomer content: 1.1 area-%

## CCCCC/C=C\C/C=C\C/C=C\C/C=C\CCCC(=O)O [ARA-OH, all-cis-5,8,11,14-eicosatetraenoic acid]
[1]
  Anisidine Value: 4.2
[1]; t = 0, before storage
  Anisidine Value (AV): 4.2 A/g
[1]; [4]
  Anisidine Value (AV): 211 A/g
[2]; as obtained (experiments 1-4)
  Peroxide Value: 7.2 mmol/kg
[2]; t = 0, before storage
  Peroxide Value (PV): 7.2 mmol/kg
[2]; [4]
  Peroxide Value (PV): 5.8 mmol/kg

## CCCCC/C=C\C/C=C\C/C=C\CCCCC(=O)O [GLA-OH, gamma-linolenic acid]
[1]
  Anisidine Value: 7.6
[1]; t = 0, before storage
  Anisidine Value (AV): 7.6 A/g
[1]; [4]
  Anisidine Value (AV): 137 A/g
[2]; as obtained (experiments 1-4)
  Peroxide Value: 5.6 mmol/kg
[2]; t = 0, before storage
  Peroxide Value (PV): 5.6 mmol/kg
[2]; [4]
  Peroxide Value (PV): 1.3 mmol/kg
[3]
  Oligomer content: 0.3 area-%

## Gamma-Linolenic acid-L-Lysine Salt [GLA-Lys]
[1]
  Anisidine Value: 5.4
[1]; t = 0, before storage
  Anisidine Value (AV): 5.4 A/g
[1]; [4]
  Anisidine Value (AV): <1 A/g
[2]; as obtained (experiments 1-4)
  Peroxide Value: 1.0 mmol/kg
[2]; t = 0, before storage
  Peroxide Value (PV): 1.0 mmol/kg
[2]; [4]
  Peroxide Value (PV): <1 mmol/kg
[3]
  Oligomer content: 0.6 area-%

## CCCCC/C=C\C/C=C\C/C=C\CCCCC(=O)OCC [GLA-OEt, gamma-linolenic acid ethyl ester]
[1]
  Anisidine Value: 19.1
[1]; t = 0, before storage
  Anisidine Value (AV): 19.1 A/g
[1]; [4]
  Anisidine Value (AV): 1237 A/g
[2]; commercially available starting material as supplied
  Peroxide Value: 52.1 mmol/kg
[2]; t = 0, before storage
  Peroxide Value (PV): 52.1 mmol/kg
[2]; [4]
  Peroxide Value (PV): 86.3 mmol/kg
